Data: ChEMBL document CHEMBL5376004, “Discovery and Development of Quinazolinones and Quinazolinediones for Ameliorating Nonalcoholic Fatty Liver Disease (NAFLD) by Modulating COP1-ATGL Axis” (J Med Chem, 2023)
Values after ≈ are worked out from the molar mass of the structure shown. Active and inactive are the calls of the source. The rule behind the calls is not given here.

Key:
COP1-AGTL (Homo sapiens) = COP1-AGTL (Homo sapiens) (UniProt Q96AD5+Q8NHY2); assay: Induction of COP1 to ATGL stabilization (unknown origin) expressed in HEK293-A cells assessed as reduction in ATGL ubiquitination incubated for 6 hrs by Western blotting analysis; format: cell-based
[1] = Stability in human plasma assessed as compound remaining after 2 hrs; format: ADME, cell-free; conditions: read-out: Stability
[2] = Aqueous solubility of compound at pH 7.4; format: physicochemical
[3] = Metabolic stability in mouse liver microsomes assessed as hepatic blood flow; format: ADME, Microsome; conditions: read-out: QH
[4] = Metabolic stability in mouse liver microsomes assessed as half life; format: ADME, Microsome
[5] = Stability in mouse plasma assessed as compound remaining after 2 hrs; format: ADME, cell-free; conditions: read-out: Stability
[6] = Metabolic stability in human liver microsomes assessed as hepatic blood flow; format: ADME, Microsome; conditions: read-out: QH
[7] = Metabolic stability in human liver microsomes assessed as half life; format: ADME, Microsome
[8] = Metabolic stability in human liver microsomes assessed as intrinsic clearance per mg of protein; format: ADME, Microsome; conditions: read-out: CLH
[9] = Metabolic stability in mouse liver microsomes assessed as intrinsic clearance per mg of protein; format: ADME, Microsome; conditions: read-out: CLH
[10] = Lipophilicity, logD of compound; format: physicochemical; conditions: octanol/water
HepG2 = assay: Reduction in lipid droplets in human HepG2 cells by […] staining based confocal microscopic analysis; format: functional, cell-based
Hepatocyte = assay: Upregulation of ATGL protein level in mouse primary hepatocytes incubated for 24 hrs by Western blotting analysis; format: functional, cell-based; conditions: dose 10-500 nM

COP1-AGTL (Homo sapiens), sequence (Q8NHY2 whole entry, looked up): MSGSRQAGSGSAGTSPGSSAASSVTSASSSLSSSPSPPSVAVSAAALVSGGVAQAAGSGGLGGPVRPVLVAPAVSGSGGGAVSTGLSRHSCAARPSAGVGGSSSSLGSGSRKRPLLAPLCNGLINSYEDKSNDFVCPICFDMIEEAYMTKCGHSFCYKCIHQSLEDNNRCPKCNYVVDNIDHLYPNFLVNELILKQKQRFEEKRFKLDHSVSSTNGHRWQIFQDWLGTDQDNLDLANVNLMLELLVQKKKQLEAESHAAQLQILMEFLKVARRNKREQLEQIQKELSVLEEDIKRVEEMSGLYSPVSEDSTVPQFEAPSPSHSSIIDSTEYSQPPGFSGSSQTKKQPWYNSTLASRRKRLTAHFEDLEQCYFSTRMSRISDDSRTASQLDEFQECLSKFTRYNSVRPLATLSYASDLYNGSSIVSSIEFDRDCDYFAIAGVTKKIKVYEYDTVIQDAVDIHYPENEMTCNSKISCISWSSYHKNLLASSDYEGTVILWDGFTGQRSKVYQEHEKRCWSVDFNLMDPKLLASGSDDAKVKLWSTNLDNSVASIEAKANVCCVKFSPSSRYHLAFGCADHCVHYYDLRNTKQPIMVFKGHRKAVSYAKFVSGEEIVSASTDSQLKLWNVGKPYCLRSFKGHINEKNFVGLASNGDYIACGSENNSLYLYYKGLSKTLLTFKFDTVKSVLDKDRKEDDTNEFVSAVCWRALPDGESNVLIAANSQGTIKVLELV
COP1-AGTL (Homo sapiens), sequence (Q96AD5 whole entry, looked up): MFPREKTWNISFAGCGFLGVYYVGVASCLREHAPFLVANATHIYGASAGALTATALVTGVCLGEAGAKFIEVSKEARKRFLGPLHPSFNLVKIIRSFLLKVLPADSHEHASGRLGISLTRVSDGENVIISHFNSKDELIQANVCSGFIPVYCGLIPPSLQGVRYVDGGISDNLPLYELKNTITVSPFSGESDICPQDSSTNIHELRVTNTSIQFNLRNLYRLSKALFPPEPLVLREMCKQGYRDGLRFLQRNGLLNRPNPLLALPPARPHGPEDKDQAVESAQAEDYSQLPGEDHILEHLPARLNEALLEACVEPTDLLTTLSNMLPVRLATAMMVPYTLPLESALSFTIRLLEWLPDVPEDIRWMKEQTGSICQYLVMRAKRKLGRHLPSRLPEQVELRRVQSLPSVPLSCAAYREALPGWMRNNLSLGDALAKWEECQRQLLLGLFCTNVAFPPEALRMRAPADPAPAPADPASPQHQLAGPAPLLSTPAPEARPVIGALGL

SMILES: COCCn1cnc2ccc(NC(=O)Nc3cccc(C(=O)c4ccccc4)c3)cc2c1=O
- Activity (COP1-AGTL (Homo sapiens)): inactive

SMILES: COCCn1cnc2ccc(NC(=O)NC3CCN(C)CC3)cc2c1=O
- Activity (COP1-AGTL (Homo sapiens)): inactive

SMILES: COCCn1cnc2ccc(NC(=O)N(C)C)cc2c1=O
- Activity (COP1-AGTL (Homo sapiens)): inactive

SMILES: COCCn1c(=O)c2cc(NC(=O)Nc3cccc(C(C)=O)c3)ccc2n(C(C)C)c1=O
- remaining at 2 h [1]: 80.8%
- solubility [2]: 2.8 µg/mL (≈ 6.39 µM)
- hepatic extraction ratio [3]: 0.536
- half-life [4]: 0.272 h
- remaining at 2 h [5]: 90.7%
- hepatic extraction ratio [6]: 0.403
- half-life [7]: 0.793 h
- Activity (COP1-AGTL (Homo sapiens)): inactive
- microsomal CLint [8]: 14.6 µL/min/mg
- microsomal CLint [9]: 42.6 µL/min/mg
- logD [10]: 2.67

SMILES: CC(=O)c1cccc(NC(=O)Nc2ccc3ncn(CCN4CCOCC4)c(=O)c3c2)c1
- Activity (COP1-AGTL (Homo sapiens)): inactive

SMILES: COCCCn1cnc2ccc(NC(=O)Nc3cccc(C(C)=O)c3)cc2c1=O
- Activity (COP1-AGTL (Homo sapiens)): Active

SMILES: COCCn1cnc2ccc(NC(=O)Nc3cccc(C(C)=O)c3)c(-c3ccc(F)cc3)c2c1=O
- remaining at 2 h [1]: 44.9%
- solubility [2]: 31.9 µg/mL (≈ 67.2 µM)
- hepatic extraction ratio [3]: 0.925
- half-life [4]: 0.025 h
- Activity (COP1-AGTL (Homo sapiens)): inactive
- microsomal CLint [9]: 456 µL/min/mg
- logD [10]: 1.9

SMILES: CC(=O)c1cccc(NC(=O)Nc2ccc3ncn(CCCN4CCOCC4)c(=O)c3c2)c1
- Activity (COP1-AGTL (Homo sapiens)): inactive

SMILES: COCCn1c(=O)[nH]c2ccc(NC(=O)Nc3cccc(C(C)=O)c3)cc2c1=O
- remaining at 2 h [1]: 97.4%
- solubility [2]: 0.8 µg/mL (≈ 2.02 µM)
- hepatic extraction ratio [3]: 0.228
- half-life [4]: 1.25 h
- remaining at 2 h [5]: 68.4%
- hepatic extraction ratio [6]: 0.076
- half-life [7]: 7.16 h
- Activity (COP1-AGTL (Homo sapiens)): Active
- microsomal CLint [8]: 1.8 µL/min/mg
- microsomal CLint [9]: 11.4 µL/min/mg
- logD [10]: 2.17

SMILES: CCn1cnc2ccc(NC(=O)Nc3cccc(C(C)=O)c3)cc2c1=O
- Activity (COP1-AGTL (Homo sapiens)): inactive

SMILES: COCCn1cnc2ccc(NC(=O)Nc3cccc(C(C)=O)c3)c(-c3ccccc3)c2c1=O
- Activity (COP1-AGTL (Homo sapiens)): Active

SMILES: COCCn1cnc2ccc(NC(=O)Nc3cccc(OC)c3)cc2c1=O
- remaining at 2 h [1]: 73.9%
- solubility [2]: 21.5 µg/mL (≈ 58.4 µM)
- hepatic extraction ratio [3]: 0.231
- half-life [4]: 1.05 h
- remaining at 2 h [5]: 84.5%
- hepatic extraction ratio [6]: 0.184
- Activity (HepG2): Active
- half-life [7]: 2.4 h
- Activity (COP1-AGTL (Homo sapiens)): Active
- Activity (Hepatocyte): Dose-Dependent Effect
- microsomal CLint [8]: 4.9 µL/min/mg
- microsomal CLint [9]: 11 µL/min/mg
- logD [10]: 3.02

SMILES: COCCn1cnc2ccc(NC(=O)Nc3cccc(C(C)=O)c3)c(-c3ccc(C(F)(F)F)cc3)c2c1=O
- Activity (COP1-AGTL (Homo sapiens)): inactive

SMILES: COCCn1c(=O)c2cc(NC(=O)Nc3cccc(C(C)=O)c3)ccc2n(C)c1=O
- Activity (COP1-AGTL (Homo sapiens)): Active

SMILES: COCCn1cnc2ccc(NC(=O)Nc3ccc(F)cc3)cc2c1=O
- Activity (COP1-AGTL (Homo sapiens)): inactive

SMILES: COCCn1cnc2ccc(NC(=O)Nc3cccc(C(C)=O)c3)c(-c3ccc(OC)cc3)c2c1=O
- Activity (COP1-AGTL (Homo sapiens)): inactive

SMILES: COCCn1c(=O)c2cc(NC(=O)Nc3cccc(C(C)=O)c3)ccc2n(CCN2CCCC2)c1=O
- remaining at 2 h [1]: 32.8%
- solubility [2]: 124 µg/mL (≈ 252 µM)
- hepatic extraction ratio [3]: 0.26
- half-life [4]: 0.895 h
- remaining at 2 h [5]: 50.3%
- hepatic extraction ratio [6]: 0.175
- half-life [7]: 2.56 h
- Activity (COP1-AGTL (Homo sapiens)): Active
- microsomal CLint [8]: 4.6 µL/min/mg
- microsomal CLint [9]: 13 µL/min/mg
- logD [10]: 2.58

SMILES: CC(=O)c1cccc(NC(=O)Nc2ccc3nc[nH]c(=O)c3c2)c1
- Activity (COP1-AGTL (Homo sapiens)): inactive

SMILES: COCCn1cnc2ccc(NC(=O)Nc3ccccc3)cc2c1=O
- Activity (COP1-AGTL (Homo sapiens)): inactive

SMILES: COCCn1cnc2ccc(NC(=O)Nc3cccc(C(O)C(F)(F)F)c3)cc2c1=O (stereo unspecified)
- remaining at 2 h [1]: 74.6%
- solubility [2]: 27 µg/mL (≈ 61.9 µM)
- hepatic extraction ratio [3]: 0.462
- half-life [4]: 0.367 h
- remaining at 2 h [5]: 118%
- hepatic extraction ratio [6]: 0.415
- half-life [7]: 0.753 h
- Activity (COP1-AGTL (Homo sapiens)): inactive
- microsomal CLint [8]: 15.3 µL/min/mg
- microsomal CLint [9]: 31.7 µL/min/mg
- logD [10]: 2.54

SMILES: COCCn1cnc2ccc(NC(=O)Nc3cccc(C(C)=O)c3)c(Br)c2c1=O
- remaining at 2 h [1]: 10.3%
- solubility [2]: 3.4 µg/mL (≈ 7.4 µM)
- hepatic extraction ratio [3]: 0.167
- half-life [4]: 1.78 h
- Activity (COP1-AGTL (Homo sapiens)): Active
- microsomal CLint [9]: 7.5 µL/min/mg
- logD [10]: 1.95

SMILES: CCCCn1cnc2ccc(NC(=O)Nc3cccc(C(C)=O)c3)cc2c1=O
- Activity (COP1-AGTL (Homo sapiens)): inactive

SMILES: COCCn1cnc2ccc(NC(=O)Nc3cccc(C(C)=O)c3)c(-c3ccc(OC)nc3)c2c1=O
- Activity (COP1-AGTL (Homo sapiens)): inactive

SMILES: COCCn1cnc2ccc(NC(=O)Nc3cccc(C(C)=O)c3)c(C3CCNCC3)c2c1=O
- Activity (COP1-AGTL (Homo sapiens)): inactive

SMILES: CC(=O)c1cccc(NC(=O)Nc2ccc3ncn(CCN4CCCCC4)c(=O)c3c2)c1
- Activity (COP1-AGTL (Homo sapiens)): inactive

SMILES: COCCn1cnc2ccc(NC(=O)Nc3cccc(C(=O)C(F)(F)F)c3)cc2c1=O
- remaining at 2 h [1]: 62%
- solubility [2]: 9.6 µg/mL (≈ 22.1 µM)
- hepatic extraction ratio [3]: 0.183
- half-life [4]: 1.41 h
- remaining at 2 h [5]: 52.6%
- hepatic extraction ratio [6]: 0.262
- half-life [7]: 1.5 h
- Activity (COP1-AGTL (Homo sapiens)): inactive
- microsomal CLint [8]: 7.7 µL/min/mg
- microsomal CLint [9]: 8.2 µL/min/mg
- logD [10]: 4.25

SMILES: COCCn1cnc2ccc(NC(=O)Nc3ccc(C(F)(F)F)cc3)cc2c1=O
- Activity (COP1-AGTL (Homo sapiens)): inactive

SMILES: COCCn1cnc2ccc(NC(=O)Nc3cccc(C(C)=O)c3)c(C3=CCNCC3)c2c1=O
- Activity (COP1-AGTL (Homo sapiens)): inactive

SMILES: COCCn1cnc2ccc(NC(=O)Nc3cccc(C(C)O)c3)cc2c1=O (stereo unspecified)
- Activity (COP1-AGTL (Homo sapiens)): inactive

SMILES: COCCn1cnc2ccc(NC(=O)Nc3ccccc3C(F)(F)F)cc2c1=O
- Activity (COP1-AGTL (Homo sapiens)): inactive

SMILES: COCCn1cnc2ccc(NC(=O)N3CCCCC3)cc2c1=O
- Activity (COP1-AGTL (Homo sapiens)): inactive

SMILES: CCc1cccc(NC(=O)Nc2ccc3ncn(CCOC)c(=O)c3c2)c1
- Activity (COP1-AGTL (Homo sapiens)): inactive

SMILES: COCCn1cnc2ccc(NC(=O)Nc3ccccc3OC)cc2c1=O
- Activity (COP1-AGTL (Homo sapiens)): inactive

SMILES: COCCn1cnc2ccc(NC(=O)Nc3ccc(OC)cc3)cc2c1=O
- Activity (COP1-AGTL (Homo sapiens)): Active

SMILES: CC(C)[N+](C)(CCOC(=O)C1c2ccccc2Oc2ccccc21)C(C)C [PROPANTHELINE]
- remaining at 2 h [5]: 0%

SMILES: COCCn1cnc2ccc(NC(=O)Nc3cccc(C(F)(F)F)c3)cc2c1=O
- Activity (COP1-AGTL (Homo sapiens)): inactive

SMILES: CC(=O)c1cccc(NC(=O)Nc2ccc3ncn(CCN(C)C)c(=O)c3c2)c1
- Activity (COP1-AGTL (Homo sapiens)): inactive
